We go through two compounds from patent US20050163711A1, “Intra-dermal delivery of biologically active agents” (Becton, Dickinson and Company, Inc., priority 2003, published 2005).

Series [1] can be described thus: ID administration of 200 uL dye with 34G, 1 mm needle/catheter, transport to inguinal lymph node. The series is classed as in vivo, Yorkshire swine. Particulars: swine, manual ID above the right hoof, 200 uls. The procedure:
MATERIALS AND METHODS. The following experiments were conducted under an approved IACUC protocol. Yorkshire Swine (Charles River Laboratories, Raleigh, N.C.), approximately 20-25 kg, were anesthetized (Rompun 4 mg/kg, Xylazine 2 mg/kg, and Ketamine 2 mg/kg and maintained on 2% isoflurane) and injected intradermally with 1% Evans Blue (EB) dye solution at various volumes and needle penetration depths using a standard syringe and a 34 gauge needle. Injection volume and rate was controlled manually or with a Harvard Apparatus PhD 2000 programmable pump.
The skin at the injection site, including the injected material and surrounding tissue, was immediately excised after the injection. The tissue was flash frozen on dry ice/2-methylbutane and then stored at −80° C. until sectioning. The frozen tissue was cut longitudinally through the needle insertion point and immediately examined microscopically and photographed. Microscopic examinations were conducted using a Nikon SMZ-U dissecting scope with a Nikon FX-35PX 35 mm camera mount. Alternatively, after injection, the swine was euthanized and the tissue resected and photographed.
One anesthetized Yorkshire swine was manually injected intradermally above the right hoof with 200 uls of EB through a 34G, 1 mm needle/catheter.

A short description of series [2]: Dye staining and tracing in vivo after intradermal injection. Set-up: species or system Balb/c mice. Particulars: mouse, ID, 34 gauge needle, 1% solution, one hour post injection. The procedure: MATERIALS AND METHODS. In Vivo cell staining and all the following experiments were conducted under an approved IACUC protocol. Balb/c mice (Charles River Laboratories, Raleigh, N.C.), 6-8 weeks old, were anesthetized (IsoFlurane, Abbott Laboratories, Chicago, Ill.) and injected intradermally with 1% Evans Blue dye solution using a standard syringe with 34 gauge needle. The mice were dissected one hour post injection and the location of the dye observed. The mouse, as the human, has several main groups of easily identified draining lymph nodes.

Series [3] in a line: Dye staining and tracing in vivo: comparison of SC and ID delivery. Set-up: species or system Yorkshire swine. The following applies: swine; for location of dye on dissection: 10 minutes post injection. The protocol:
MATERIALS AND METHODS. In vivo cell staining and all the following experiments were conducted under an approved IACUC protocol. […] Visual observation made during ID injection noted immediate transport of the dye from the site of injection moving toward the regional draining lymph node, the inguinal node. This transport was visible through the skin and was extremely rapid, traversing tissues at velocities of up to 10 cm per second. […] The swine was euthanized and dissected 10 minutes post injection and the location of the dye observed.

The conditions of series [4]: Yorkshire, swine, in vivo.
Protocol: Yorkshire swine (Charles River Laboratories, Raleigh, N.C.), 20-25 kg, were anesthetized (telazol/xylazine/ketamine mix (35, 17.5, 17.5 mg/kg respectively, followed by continued isoflurane inhalation) and injected intradermally (90° angle) using a 34G, 1 mm needle/catheter and a standard syringe. IV injections were performed using a 27G, half-inch needle and delivered through a venous catheter. All recovered swine were intubated and hydrated throughout the procedure.
Dye Injections: Yorkshire swine were injected ID as described above, with 200 uls of 250 ug/ml indocyanine green (ICG) in sterile water (Fluka Chemical Corp., Milwaukee, Wis.). Injections sites included the right hind leg, and at the first and second teat of the left mammary chain. Additional injections of 200 μls and 75 μls were performed at 80 ug/ml indocyanine green in order to determine lymphatic flow rates. […]
Image Acquisition: Near infrared images were obtained using a tungsten lamp (Dolan-Jenner, Lawrence, Mass.) fitted with a 750 nm excitation filter (Omega Optical, Brattleboro, Vt.), a CCD camera (Kowa Co., Supercircuits CCTV camera model b/w Hi-Res ExVision) fitted with a 790 nm long pass emission filter (Omega Optical) and a Canon ZR-20 mini-DV camcorder. […] Speed of infusion through the lymphatic vessels determined from film footage.

As to `Cc1cc(-c2ccc(/N=N/c3ccc4c(S(=O)(=O)O)cc(S(=O)(=O)O)c(N)c4c3O)c(C)c2)ccc1/N=N/c1ccc2c(S(=O)(=O)O)cc(S(=O)(=O)O)c(N)c2c1O` [Evans Blue], the “time for dye to travel from site of injection to draining inguinal lymph node” value in series [1] is reported as “Within seconds”. Further, in series [1] (34G 1 mm needle/catheter), the “rate of travel of dye to draining inguinal lymph node” value is roughly 20 cm/s. The “staining of superficial inguinal lymph nodes with the dye” value in series [2] is listed as “highly stained”. The “location of dye on dissection” value was “moved rapidly through the lymphatic vasculature to the inguinal node” in series [3] (ID injected); “remained at the site of injection and was not transported to the inguinal node” in series [3] (subcutaneous injected). For the same compound, the “velocity of dye transport from injection site toward inguinal node” value in series [3] (ID, 34-gauge needle 1 mm, 1% solution, visual observation through skin) is listed as “up to 10 cm per second”. Also, in series [3] (subcutaneous, 25 gauge needle, approximate depth 7 mm), the “transport of dye, visual observation” value was “no apparent transport of the dye”.

For the compound `CC1(C)C(/C=C/C=C/C=C/C=C2\N(CCCCS(=O)(=O)O)c3ccc4ccccc4c3C2(C)C)=[N+](CCCCS(=O)(=O)[O-])c2ccc3ccccc3c21` [ICG, indocyanine green], the “dye travel speed calculated for one injection” value in series [4] is 7 cm/s.
